Assay results as given in ChEMBL document CHEMBL3885881, “DrugMatrix”.

Species: Rattus norvegicus
Test: DrugMatrix - Regimen: Daily Repeat
Type: toxicity, organism-based, Sprague-Dawley
Set-up: regimen Daily Repeat, gender Male, age 6-8 weeks
Settings: in vivo, ip, route intraperitoneal, vehicle 100 % SALINE; for ABSOLUTE BASOPHIL / ABSOLUTE EOSINOPHIL / ABSOLUTE LYMPHOCYTE / ABSOLUTE MONOCYTE / ABSOLUTE SEGMENTED NEUTROPHIL / BASOPHIL / EOSINOPHIL / ERYTHROCYTE COUNT / HEMATOCRIT / HEMOGLOBIN / LEUKOCYTE COUNT / LYMPHOCYTE / MEAN CORPUSCULAR HEMOGLOBIN / MEAN CORPUSCULAR HEMOGLOBIN CONCENTRATION / MEAN CORPUSCULAR VOLUME / MONOCYTE / NEUTROPHIL / PLATELET COUNT: tissue Blood
[1] = 0 mg/kg, 120 h, dose level Control, time 5 day
[2] = 0 mg/kg, 120 h, tissue Plasma, dose level Control, time 5 day
[3] = 0 mg/kg, […], dose level Control, time 14 day
[4] = 0 mg/kg, […], dose level Control, time 28 day
[5] = 0 mg/kg, […], tissue Plasma, dose level Control, time 14 day
[6] = 0 mg/kg, […], tissue Plasma, dose level Control, time 28 day
[7] = 2 mg/kg, 120 h, dose level High, time 5 day
[8] = 2 mg/kg, 120 h, tissue Plasma, dose level High, time 5 day
[9] = 2 mg/kg, […], dose level High, time 14 day
[10] = 2 mg/kg, […], dose level High, time 28 day

## CADMIUM DICHLORIDE
[1]
  ABSOLUTE BASOPHIL: 32 cells/µL
  ABSOLUTE EOSINOPHIL: 110 cells/µL
  ABSOLUTE LYMPHOCYTE: 6630 cells/µL
  ABSOLUTE MONOCYTE: 140 cells/µL
  ABSOLUTE SEGMENTED NEUTROPHIL: 1170 cells/µL
  BASOPHIL: 0.38%
  EOSINOPHIL: 1.28%
  ERYTHROCYTE COUNT: 7.45 x10E6/uL
  HEMATOCRIT: 45.74%
  HEMOGLOBIN: 14.72 G/DL
  LEUKOCYTE COUNT: 8.11 x10E3/uL
  LYMPHOCYTE: 81.3%
  MEAN CORPUSCULAR HEMOGLOBIN: 19.76 pg
  MEAN CORPUSCULAR HEMOGLOBIN CONCENTRATION: 32.16 G/DL
  MEAN CORPUSCULAR VOLUME: 61.38 fL
  MONOCYTE: 1.76%
  NEUTROPHIL: 14.9%
  PLATELET COUNT: 1322.4 x10E3/uL
[2]
  ALANINE AMINOTRANSFERASE: 25.8 u/L
  ALBUMIN: 3.64 G/DL
  ASPARTATE AMINOTRANSFERASE: 81.4 u/L
  BLOOD UREA NITROGEN: 14.4 mg/dL
  CHOLESTEROL: 69.2 mg/dL
  CREATINE PHOSPHOKINASE: 303.2 u/L
  CREATININE: 0.56 mg/dL
  GLUCOSE: 125.4 mg/dL
  LACTATE DEHYDROGENASE: 105.4 u/L
  LIPASE: 22.4 u/L
  POTASSIUM: 5.52 MEQ/L
  SODIUM: 147 MEQ/L
  TOTAL BILIRUBIN: 0.2 mg/dL
  TOTAL PROTEIN: 6.1 G/DL
  URIC ACID: 1.06 mg/dL
[3]
  ABSOLUTE BASOPHIL: 130 cells/µL
  ABSOLUTE EOSINOPHIL: 140 cells/µL
  ABSOLUTE LYMPHOCYTE: 13500 cells/µL
  ABSOLUTE MONOCYTE: 400 cells/µL
  ABSOLUTE SEGMENTED NEUTROPHIL: 2330 cells/µL
  BASOPHIL: 0.72%
  EOSINOPHIL: 0.86%
  ERYTHROCYTE COUNT: 7.74 x10E6/uL
  HEMATOCRIT: 45.98%
  LEUKOCYTE COUNT: 16.61 x10E3/uL
  LYMPHOCYTE: 81.34%
  MEAN CORPUSCULAR HEMOGLOBIN: 18 pg
  MEAN CORPUSCULAR HEMOGLOBIN CONCENTRATION: 30.22 G/DL
  MEAN CORPUSCULAR VOLUME: 59.4 fL
  MONOCYTE: 2.46%
  NEUTROPHIL: 14.14%
  PLATELET COUNT: 1445.5 x10E3/uL
[4]
  ABSOLUTE BASOPHIL: 91 cells/µL
  ABSOLUTE EOSINOPHIL: 110 cells/µL
  ABSOLUTE LYMPHOCYTE: 9910 cells/µL
  ABSOLUTE MONOCYTE: 210 cells/µL
  ABSOLUTE SEGMENTED NEUTROPHIL: 1560 cells/µL
  BASOPHIL: 0.77%
  EOSINOPHIL: 0.92%
  ERYTHROCYTE COUNT: 8.21 x10E6/uL
  HEMATOCRIT: 47.53%
  HEMOGLOBIN: 15.65 G/DL
  LEUKOCYTE COUNT: 11.91 x10E3/uL
  LYMPHOCYTE: 83.34%
  MEAN CORPUSCULAR HEMOGLOBIN: 19.07 pg
  MEAN CORPUSCULAR HEMOGLOBIN CONCENTRATION: 32.93 G/DL
  MEAN CORPUSCULAR VOLUME: 57.9 fL
  MONOCYTE: 1.68%
  NEUTROPHIL: 12.97%
  PLATELET COUNT: 1323.8 x10E3/uL
[5]
  ALANINE AMINOTRANSFERASE: 31.6 u/L
  ALBUMIN: 3.66 G/DL
  ALKALINE PHOSPHATASE: 228.6 u/L
  ASPARTATE AMINOTRANSFERASE: 79.6 u/L
  BLOOD UREA NITROGEN: 11.2 mg/dL
  CHLORIDE: 107 MEQ/L
  CHOLESTEROL: 57 mg/dL
  CREATININE: 0.5 mg/dL
  GLUCOSE: 124.4 mg/dL
  LACTATE DEHYDROGENASE: 106.4 u/L
  LIPASE: 24.4 u/L
  PHOSPHORUS: 10.52 mg/dL
  POTASSIUM: 6.34 MEQ/L
  SODIUM: 149.2 MEQ/L
  TOTAL BILIRUBIN: 0.2 mg/dL
  TOTAL PROTEIN: 6.48 G/DL
  URIC ACID: 0.94 mg/dL
[6]
  ALANINE AMINOTRANSFERASE: 30 u/L
  ALBUMIN: 3.71 G/DL
  ALKALINE PHOSPHATASE: 186.8 u/L
  ASPARTATE AMINOTRANSFERASE: 78.2 u/L
  BLOOD UREA NITROGEN: 14.2 mg/dL
  CHOLESTEROL: 44.9 mg/dL
  CREATINE PHOSPHOKINASE: 334.3 u/L
  CREATININE: 0.6 mg/dL
  GLUCOSE: 147.2 mg/dL
  LACTATE DEHYDROGENASE: 123.1 u/L
  LIPASE: 9.6 u/L
  PHOSPHORUS: 10.01 mg/dL
  POTASSIUM: 6.57 MEQ/L
  SODIUM: 149.5 MEQ/L
  TOTAL BILIRUBIN: 0.21 mg/dL
  TOTAL PROTEIN: 6.66 G/DL
  URIC ACID: 1.26 mg/dL
[7]
  ABSOLUTE BASOPHIL: 82 cells/µL
  ABSOLUTE EOSINOPHIL: 170 cells/µL
  ABSOLUTE LYMPHOCYTE: 6790 cells/µL
  ABSOLUTE MONOCYTE: 750 cells/µL
  ABSOLUTE SEGMENTED NEUTROPHIL: 6.49 CELLS/uL
  BASOPHIL: 0.52%
  EOSINOPHIL: 1.36%
  ERYTHROCYTE COUNT: 7.45 x10E6/uL
  HEMATOCRIT: 43.86%
  HEMOGLOBIN: 14.46 G/DL
  LEUKOCYTE COUNT: 14.43 x10E3/uL
  LYMPHOCYTE: 52.2%
  MEAN CORPUSCULAR HEMOGLOBIN: 19.4 pg
  MEAN CORPUSCULAR HEMOGLOBIN CONCENTRATION: 32.92 G/DL
  MEAN CORPUSCULAR VOLUME: 59.02 fL
  MONOCYTE: 5.12%
  NEUTROPHIL: 39.98%
  PLATELET COUNT: 1991.4 x10E3/uL
[8]
  ALANINE AMINOTRANSFERASE: 32 u/L
  ALBUMIN: 3.14 G/DL
  ALKALINE PHOSPHATASE: 100.2 u/L
  ASPARTATE AMINOTRANSFERASE: 134 u/L
  BLOOD UREA NITROGEN: 16.8 mg/dL
  CHOLESTEROL: 54.8 mg/dL
  CREATINE PHOSPHOKINASE: 243.4 u/L
  CREATININE: 0.44 mg/dL
  GLUCOSE: 120.4 mg/dL
  LACTATE DEHYDROGENASE: 161.2 u/L
  LIPASE: 76.6 u/L
  PHOSPHORUS: 11.2 mg/dL
  POTASSIUM: 6.38 MEQ/L
  SODIUM: 146 MEQ/L
  TOTAL BILIRUBIN: 0.2 mg/dL
  TOTAL PROTEIN: 5.32 G/DL
  URIC ACID: 1.7 mg/dL
[9]
  ABSOLUTE BASOPHIL: 180 cells/µL
  ABSOLUTE EOSINOPHIL: 86 cells/µL
  ABSOLUTE LYMPHOCYTE: 8270 cells/µL
  ABSOLUTE MONOCYTE: 890 cells/µL
  ABSOLUTE SEGMENTED NEUTROPHIL: 6.16 CELLS/uL
  BASOPHIL: 1.22%
  EOSINOPHIL: 0.6%
  ERYTHROCYTE COUNT: 7.03 x10E6/uL
  HEMATOCRIT: 40.98%
  HEMOGLOBIN: 13.48 G/DL
  LEUKOCYTE COUNT: 15.72 x10E3/uL
  LYMPHOCYTE: 52.14%
  MEAN CORPUSCULAR HEMOGLOBIN: 19.2 pg
  MEAN CORPUSCULAR HEMOGLOBIN CONCENTRATION: 32.92 G/DL
  MEAN CORPUSCULAR VOLUME: 58.34 fL
  MONOCYTE: 5.4%
  NEUTROPHIL: 39.7%
  PLATELET COUNT: 2275.2 x10E3/uL
[10]
  ABSOLUTE BASOPHIL: 270 cells/µL
  ABSOLUTE EOSINOPHIL: 150 cells/µL
  ABSOLUTE LYMPHOCYTE: 12500 cells/µL
  ABSOLUTE MONOCYTE: 620 cells/µL
  ABSOLUTE SEGMENTED NEUTROPHIL: 4220 cells/µL
  BASOPHIL: 1.34%
  EOSINOPHIL: 0.93%
  ERYTHROCYTE COUNT: 7.42 x10E6/uL
  HEMATOCRIT: 44.63%
  LEUKOCYTE COUNT: 17.89 x10E3/uL
  LYMPHOCYTE: 68.87%
  MEAN CORPUSCULAR HEMOGLOBIN: 18.83 pg
  MEAN CORPUSCULAR HEMOGLOBIN CONCENTRATION: 31.21 G/DL
  MONOCYTE: 3.41%
